Assay results as given in the NIST ThermoML archive (doi:10.1016/j.jct.2011.05.033).

Columns and labels:
[1] = xn = mol fraction of the nth substance listed; conditions: 298.15 K, 101 kPa, Liquid, Vibrating tube method
[2] = excess molar enthalpy (molar enthalpy of mixing); xn = mol fraction of the nth substance listed; conditions: 298.15 K, 101 kPa, Liquid, Isothermal Titration Calorimeter

CO [methanol] + CCCC[n+]1ccn(C)c1.O=S(=O)([N-]S(=O)(=O)C(F)(F)F)C(F)(F)F
Conditions	mass density [kg/m3]
[1], x2 = 0	792.92

CCn1cc[n+](C)c1.O=S(=O)([N-]S(=O)(=O)C(F)(F)F)C(F)(F)F + CCCCO
[2]
Conditions	excess molar enthalpy [kcal/mol]
x2 = 0.0051	0.0103
x2 = 0.0102	0.0203
x2 = 0.0152	0.0304
x2 = 0.0201	0.0399
x2 = 0.025	0.0495
x2 = 0.0299	0.0586
x2 = 0.0347	0.0676
x2 = 0.0395	0.0765
x2 = 0.0442	0.0851
x2 = 0.0488	0.0935
x2 = 0.0535	0.102
x2 = 0.0581	0.11
x2 = 0.0626	0.118
x2 = 0.0671	0.125
x2 = 0.0715	0.133

CO [methanol] + CCCCCC[n+]1ccn(C)c1.O=S(=O)([N-]S(=O)(=O)C(F)(F)F)C(F)(F)F
Conditions	mass density [kg/m3]
[1], x2 = 0	792.66

CO [methanol] + CCCCCCCCCCn1cc[n+](C)c1.O=S(=O)([N-]S(=O)(=O)C(F)(F)F)C(F)(F)F
Conditions	mass density [kg/m3]
[1], x2 = 0	793.17

CCCCCC[n+]1ccn(C)c1.O=S(=O)([N-]S(=O)(=O)C(F)(F)F)C(F)(F)F + CCCCCCO
[2]
Conditions	excess molar enthalpy [kcal/mol]
x2 = 0.0045	0.00956
x2 = 0.0089	0.0189
x2 = 0.0132	0.0282
x2 = 0.0176	0.037
x2 = 0.0219	0.0459
x2 = 0.0261	0.0545
x2 = 0.0304	0.0629
x2 = 0.0345	0.071
x2 = 0.0387	0.0791
x2 = 0.0428	0.0868
x2 = 0.0469	0.0946
x2 = 0.0509	0.102
x2 = 0.0549	0.109
x2 = 0.0589	0.117
x2 = 0.0629	0.124

CCCC[n+]1ccn(C)c1.O=S(=O)([N-]S(=O)(=O)C(F)(F)F)C(F)(F)F + CO
Conditions	excess molar enthalpy [kcal/mol]	mass density [kg/m3]
[1], x1 = 0.0844	–	1054.48
[1], x1 = 0.1155	–	1109.91
[1], x1 = 0.1594	–	1168.72
[1], x1 = 0.1722	–	1182.69
[1], x1 = 0.264	–	1259.96
[1], x1 = 0.6327	–	1388.71
[1], x1 = 0.8245	–	1418.09
[1], x1 = 1	–	1436.29
[2], x2 = 0.0131	0.0218	–
[2], x2 = 0.0258	0.0423	–
[2], x2 = 0.0383	0.0617	–
[2], x2 = 0.0504	0.08	–
[2], x2 = 0.0622	0.0973	–
[2], x2 = 0.0737	0.114	–
[2], x2 = 0.0849	0.129	–
[2], x2 = 0.0959	0.144	–
[2], x2 = 0.1066	0.157	–
[2], x2 = 0.1171	0.171	–
[2], x2 = 0.1273	0.183	–
[2], x2 = 0.1373	0.195	–
[2], x2 = 0.147	0.206	–
[2], x2 = 0.1566	0.216	–
[2], x2 = 0.1659	0.226	–

CCn1cc[n+](C)c1.O=S(=O)([N-]S(=O)(=O)C(F)(F)F)C(F)(F)F + CCCCCCO
[2]
Conditions	excess molar enthalpy [kcal/mol]
x2 = 0.0036	0.00621
x2 = 0.0072	0.0117
x2 = 0.0107	0.0165
x2 = 0.0142	0.0206
x2 = 0.0177	0.0239
x2 = 0.0212	0.0265
x2 = 0.0246	0.0287

CCn1cc[n+](C)c1.O=S(=O)([N-]S(=O)(=O)C(F)(F)F)C(F)(F)F + CCO
[2]
Conditions	excess molar enthalpy [kcal/mol]
x2 = 0.0083	0.0143
x2 = 0.0165	0.0282
x2 = 0.0245	0.0416
x2 = 0.0324	0.0545
x2 = 0.0402	0.0669
x2 = 0.0479	0.0791
x2 = 0.0554	0.0908
x2 = 0.0628	0.102
x2 = 0.0702	0.113
x2 = 0.0773	0.124
x2 = 0.0844	0.134
x2 = 0.0914	0.144
x2 = 0.0983	0.154
x2 = 0.105	0.163
x2 = 0.1117	0.172

CCCCCCCCCCn1cc[n+](C)c1.O=S(=O)([N-]S(=O)(=O)C(F)(F)F)C(F)(F)F + CO
Conditions	excess molar enthalpy [kcal/mol]	mass density [kg/m3]
[1], x1 = 0.0001	–	789.6
[1], x1 = 0.0233	–	883.6
[1], x1 = 0.0513	–	963.28
[1], x1 = 0.1054	–	1054.89
[1], x1 = 0.1417	–	1094.51
[1], x1 = 0.1679	–	1115.13
[1], x1 = 0.2161	–	1147.23
[1], x1 = 0.2452	–	1163.25
[1], x1 = 0.297	–	1183.51
[1], x1 = 0.4686	–	1228.19
[1], x1 = 0.5186	–	1236.02
[1], x1 = 0.762	–	1263.65
[1], x1 = 0.7868	–	1264.97
[1], x1 = 0.8756	–	1271.49
[1], x1 = 0.9503	–	1275.73
[1], x1 = 1	–	1278.57
[2], x2 = 0.0171	0.0146	–
[2], x2 = 0.0336	0.028	–
[2], x2 = 0.0496	0.0402	–
[2], x2 = 0.0651	0.0511	–
[2], x2 = 0.08	0.0614	–
[2], x2 = 0.0945	0.0705	–
[2], x2 = 0.1086	0.0789	–
[2], x2 = 0.1222	0.0863	–
[2], x2 = 0.1354	0.0932	–
[2], x2 = 0.1482	0.0994	–
[2], x2 = 0.1606	0.105	–
[2], x2 = 0.1727	0.11	–
[2], x2 = 0.1844	0.115	–
[2], x2 = 0.1958	0.119	–
[2], x2 = 0.2069	0.123	–
